Data taken from patent US20220257552A1, “METHODS OF PRESCREENING AND TREATING BREAST CANCERS WITH SELECTIVE ANDROGEN RECEPTOR MODULATORS” (priority 2021, published 2022).

Columns and labels:
[1] = test system: MDA-MB-231 breast cancer cells stably transfected with AR; assay: Proliferation of MDA-MB-231 cells stably transfected with AR (Coulter counter); assay type: cell-based; conditions: 6 days, cell count
Procedure: MDA-MB-231 cells stably transfected with AR using lentivirus were treated with the indicated ligands for 6 days and the number of cells counted using Coulter counter.

MDA-MB-231-AR cells = assay: Morphology of MDA-MB-231-AR cells; assay type: cell-based; conditions: 3 days
Procedure: MDA-MB-231 cells were stably transfected with AR using lentivirus. […] Live cells were visualized using a light-microscope and photographed. The cells were imaged at the same magnification and under the same microscopic conditions.
MDA-MB-231 cells were stably transfected with AR using lentivirus and were treated with vehicle or AR agonists at the indicated concentrations. At the end of 3 days of incubation, the cells were imaged under a microscope (40×).

PR = biological target: T1, PR (Rattus norvegicus, UniProt Q63449); assay: PR transactivation in HEK-293 cells; assay type: cell-based
T1 construct: expressed in transfected cells
T1 sequence (Q63449 1-923): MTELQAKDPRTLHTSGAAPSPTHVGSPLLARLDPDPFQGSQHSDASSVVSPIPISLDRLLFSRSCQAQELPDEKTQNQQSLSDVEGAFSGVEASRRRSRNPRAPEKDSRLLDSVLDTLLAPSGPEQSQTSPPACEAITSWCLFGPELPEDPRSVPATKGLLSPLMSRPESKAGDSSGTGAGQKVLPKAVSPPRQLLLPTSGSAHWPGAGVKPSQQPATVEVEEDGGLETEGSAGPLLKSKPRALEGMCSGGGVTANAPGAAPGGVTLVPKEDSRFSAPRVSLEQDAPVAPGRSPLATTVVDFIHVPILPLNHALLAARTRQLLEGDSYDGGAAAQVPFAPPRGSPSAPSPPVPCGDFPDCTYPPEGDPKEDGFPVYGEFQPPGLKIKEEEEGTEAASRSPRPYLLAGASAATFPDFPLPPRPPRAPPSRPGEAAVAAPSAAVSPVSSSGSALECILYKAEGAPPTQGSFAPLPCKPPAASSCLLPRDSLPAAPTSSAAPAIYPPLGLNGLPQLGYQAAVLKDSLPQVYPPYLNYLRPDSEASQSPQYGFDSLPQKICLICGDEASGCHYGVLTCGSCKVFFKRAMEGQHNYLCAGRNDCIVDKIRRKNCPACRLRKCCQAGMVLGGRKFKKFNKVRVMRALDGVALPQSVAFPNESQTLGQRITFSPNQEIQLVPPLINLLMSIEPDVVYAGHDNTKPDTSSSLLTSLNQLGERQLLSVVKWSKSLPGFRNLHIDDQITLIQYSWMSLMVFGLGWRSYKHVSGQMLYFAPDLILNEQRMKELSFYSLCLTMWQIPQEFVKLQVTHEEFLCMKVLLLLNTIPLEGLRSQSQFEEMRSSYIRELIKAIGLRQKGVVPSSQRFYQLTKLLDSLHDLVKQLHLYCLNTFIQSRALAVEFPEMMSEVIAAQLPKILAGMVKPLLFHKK
Procedure: Rat GR, MR, PR, ER-α and ER-β were individually cloned into a pCR3.1 vector backbone. Sequencing was performed to verify the absence of any mutations. HEK-293 cells were plated at 90,000 cells per well of a 24 well plate in Dulbecco's Minimal Essential Media supplemented with 5% charcoal-stripped FBS. […] Luciferase assays were performed 48 h after transfection. Transcriptional activation values are represented as firefly luciferase normalized to renilla luciferase.

[2] = test system: MDA-MB-231-AR triple negative breast cancer cells; assay: MDA-MB-231-AR xenograft in nude mice; assay type: in vivo; conditions: for body weight / tumor weights: all doses
Procedure: MDA-MB-231-AR triple negative breast cancer cells (2 million cells/mouse; MDA-MB-231 cells stably transfected with AR using lentivirus) were mixed with matrigel (1:1) and injected subcutaneously into the flanks of intact female nude mice (n=5/group). When the tumors reached 150-200 mm^3, the animals were separated into two groups, one receiving vehicle and the other receiving 30 mg/kg Formula VIII orally. Tumor volume was measured thrice weekly and % tumor growth inhibition (TGI) was calculated. At the end of 35 days of treatment, the animals were sacrificed, tumors excised, weighed, and collected for various analyses. Blood was collected and serum separated for drug concentration measurement.

AR = biological target: T2, AR (Homo sapiens, UniProt P10275); assay: AR transactivation (GRE-LUC) in HEK-293 or MDA-MB-231 cells; assay type: cell-based; parameters: expressed in transfected cells; conditions: HEK-293 and MDA-MB-231 cells
T2 sequence (P10275 1-920): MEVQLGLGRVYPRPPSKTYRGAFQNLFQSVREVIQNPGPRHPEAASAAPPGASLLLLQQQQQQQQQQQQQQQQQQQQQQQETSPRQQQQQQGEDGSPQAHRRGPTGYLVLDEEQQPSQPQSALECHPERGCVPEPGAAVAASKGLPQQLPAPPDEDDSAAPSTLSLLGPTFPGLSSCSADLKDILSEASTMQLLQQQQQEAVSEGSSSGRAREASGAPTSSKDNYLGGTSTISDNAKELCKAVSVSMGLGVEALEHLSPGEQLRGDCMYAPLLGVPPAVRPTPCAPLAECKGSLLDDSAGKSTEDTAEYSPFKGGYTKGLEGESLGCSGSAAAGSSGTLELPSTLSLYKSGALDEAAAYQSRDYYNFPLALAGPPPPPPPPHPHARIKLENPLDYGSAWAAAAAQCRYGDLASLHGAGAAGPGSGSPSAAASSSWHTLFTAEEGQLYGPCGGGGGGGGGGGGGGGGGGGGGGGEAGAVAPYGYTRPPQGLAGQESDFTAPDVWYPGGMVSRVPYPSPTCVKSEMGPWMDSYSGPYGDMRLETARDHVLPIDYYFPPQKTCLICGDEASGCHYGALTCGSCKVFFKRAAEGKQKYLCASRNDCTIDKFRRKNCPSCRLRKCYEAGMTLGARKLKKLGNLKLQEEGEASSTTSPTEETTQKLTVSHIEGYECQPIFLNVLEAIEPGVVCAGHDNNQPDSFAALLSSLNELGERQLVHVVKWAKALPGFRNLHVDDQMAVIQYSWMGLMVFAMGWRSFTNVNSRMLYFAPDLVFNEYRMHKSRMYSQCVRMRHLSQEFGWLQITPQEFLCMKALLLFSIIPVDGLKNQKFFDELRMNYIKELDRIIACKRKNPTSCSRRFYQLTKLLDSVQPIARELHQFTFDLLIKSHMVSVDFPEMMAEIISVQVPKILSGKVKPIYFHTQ
Procedure: Though AR transactivation assay was performed in HEK-293 cells, the ability of ligands to function as agonists or antagonists depends on cellular microenvironment. […] The cells were treated 24 h after transfection and luciferase assay performed 48 h after transfection.

C[C@](O)(COc1ccc(C#N)cc1)C(=O)Nc1ccc(C#N)c(Cl)c1 [Formula VIII, (S)—N-(3-chloro-4-cyanophenyl)-3-(4-cyanophenoxy)-2-hydroxy-2-methylpropanamide]
proliferation [1]: inhibited the proliferation | cell morphology (MDA-MB-231-AR cells): altered the morphology into a more anchored phenotype | IC50 (PR): 0.0171 µM | PR antagonist potency relative to Formula IX (more potent) (PR): 10 times | PR antagonist potency relative to R-enantiomer of Formula IX (more potent) (PR): 100 times | PR antagonist potency relative to RU486 (weaker) (PR): about 1,000 fold | transactivation of PR, increase (PR; 1 μM): 3 fold | transactivation of PR, increase (PR; 10 μM): 8 fold | weaker than the endogenous agonist for PR (PR; vs progesterone): greater than 10,000 fold | uterus weight ([2]; 30 mg/kg orally): increased | toxicity / body weight ([2]; 30 mg/kg orally, 35 days): without any associated toxicity or changes in body weight | body weight [2]: increase of body weight | tumor weights [2]: reduced | AR transactivation (AR): agonists of AR

C[C@](O)(COc1ccc(C#N)cc1)C(=O)Nc1ccc(C#N)c(C(F)(F)F)c1 [Formula IX, (S)—N-(4-Cyano-3-(trifluoromethyl)phenyl)-3-(4-cyanophenoxy)-2-hydroxy-2-methylpropanamide]
proliferation [1]: inhibited the proliferation | cell morphology (MDA-MB-231-AR cells): altered the morphology into a more anchored phenotype | IC50 (PR): 0.163 µM | body weight [2]: increase of body weight | tumor weights [2]: reduced | AR transactivation (AR): agonists of AR
